Reference: ChEMBL document CHEMBL1129326, “Inhibition of DNA topoisomerase II by azaelliptitoxins functionalized in the variable substituent domain” (J Med Chem, 1996)
Active and inactive are the calls of the source. No cut-off for these calls is given here.

The compounds below were run against DNA topoisomerase II (Homo sapiens) (UniProt P11388+Q02880) (assay: Inhibitory activity against human DNA Topoisomerase-2, activity is expressed as relative DNA cleavage compared to Azatoxin by densitometric analysis; inactive).
Format: protein assay

| Structure (SMILES) | Activity |
| --- | --- |
| COc1cc([C@@H]2c3[nH]c4ccccc4c3[C@@H](Nc3cc(OC)c(OC)c(OC)c3)[C@H]3COC(=O)N23)cc(OC)c1O | inactive |
| COc1cc(N[C@@H]2c3c([nH]c4ccccc34)[C@@H](c3cc(OC)c(O)c(OC)c3)N3C(=O)OC[C@H]23)ccc1O | inactive |
| COc1cc([C@@H]2c3[nH]c4ccccc4c3[C@@H](OC)[C@H]3COC(=O)N23)cc(OC)c1O | inactive |
